Reference: ChEMBL document CHEMBL1201862, “PubChem BioAssay data set” (2004)
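Cultured in 96-well plates, cells were exposed to test compound for 48 hours across five concentrations. Here, GI50 denotes the concentration required for 50% inhibition of growth.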 Active and inactive are the calls of the source. Rule as the data show it: active = GI50 up to about 1.1 µM and inactive = higher.

Assays:
Experiment in all cases: growth of human tumour cells (NCI), 48 h
[1] = test system: SNB-75
[2] = test system: NCI/ADR-RES
[3] = test system: SNB-19
[4] = test system: Hs-578T
[5] = test system: HCT-15
[6] = test system: M14
[7] = test system: SF-268
[8] = test system: K562
[9] = test system: RPMI-8226
[10] = test system: CAKI-1
[11] = test system: MCF7
[12] = test system: HOP-92
[13] = test system: MOLT-4
[14] = test system: HOP-62
[15] = test system: SF-295
[16] = test system: SR
[17] = test system: SK-MEL-2
[18] = test system: A498
[19] = test system: TK-10
[20] = test system: NCI-H226

Compound	GI50 [1]	GI50 [2]	GI50 [3]	GI50 [4]	GI50 [5] [µM]	GI50 [6]	GI50 [7]	GI50 [8]	GI50 [9]	GI50 [10]	GI50 [11]	GI50 [12]	GI50 [13]	GI50 [14]	GI50 [15]	GI50 [16]	GI50 [17]	GI50 [18]	GI50 [19]	GI50 [20]
N/N=C(/C=C1\C(=O)Nc2ccccc21)c1ccccc1	18.7 µM (inactive)	18.2 µM (inactive)	27.6 µM (inactive)	15.4 µM (inactive)	8.43	15.5 µM (inactive)	55.6 µM (inactive)	5.45 µM (inactive)	21 µM (inactive)	24.3 µM (inactive)	18.9 µM (inactive)	24.5 µM (inactive)	19.7 µM (inactive)	32.9 µM (inactive)	21.4 µM (inactive)	40.8 µM (inactive)	61.8 µM (inactive)	28.5 µM (inactive)	42.8 µM (inactive)	45.8 µM (inactive)
COc1ccc(N2C(=O)[C@H]3CC(C)c4c([nH]c5ccccc45)[C@H]3C2=O)cc1 (stereo not given in full)	2.03 µM (inactive)	1.63 µM (inactive)	5.66 µM (inactive)	1.88 µM (inactive)	2.72	2.48 µM (inactive)	10.3 µM (inactive)	1.15 µM (inactive)	3.48 µM (inactive)	3.08 µM (inactive)	2.25 µM (inactive)	4.65 µM (inactive)	3.78 µM (inactive)	2.15 µM (inactive)	1.74 µM (inactive)	2.15 µM (inactive)	2.24 µM (inactive)	8.15 µM (inactive)	9.86 µM (inactive)	5.66 µM (inactive)
CC1=[N+](C)CCCN1C	> 100 µM (inactive)	> 100 µM (inactive)	> 100 µM (inactive)	> 100 µM (inactive)	> 100	> 100 µM (inactive)	> 100 µM (inactive)	> 100 µM (inactive)	> 100 µM (inactive)	> 100 µM (inactive)	> 100 µM (inactive)	> 100 µM (inactive)	> 100 µM (inactive)	> 100 µM (inactive)	> 100 µM (inactive)	> 100 µM (inactive)	> 100 µM (inactive)	8.69 µM (inactive)	> 100 µM (inactive)	> 100 µM (inactive)
COc1ccc(/C=C/C(=O)c2ccc(OC(=O)/C=C/c3ccccc3)cc2)cc1	28.9 µM (inactive)	31.2 µM (inactive)	21.8 µM (inactive)	36 µM (inactive)	15.7	59.8 µM (inactive)	25 µM (inactive)	5.93 µM (inactive)	3.7 µM (inactive)	23.3 µM (inactive)	23.6 µM (inactive)	44.5 µM (inactive)	16.6 µM (inactive)	61.1 µM (inactive)	25.1 µM (inactive)	2.28 µM (inactive)	45.1 µM (inactive)	25.1 µM (inactive)	44.1 µM (inactive)	59.3 µM (inactive)
Cc1nnc(Sc2nc(C#N)c(C#N)nc2Sc2nnc(C)s2)s1	28.6 µM (inactive)	17.7 µM (inactive)	22 µM (inactive)	14.6 µM (inactive)	2.6	8.2 µM (inactive)	23.6 µM (inactive)	3.48 µM (inactive)	2.5 µM (inactive)	2.32 µM (inactive)	5.82 µM (inactive)	2.14 µM (inactive)	2.25 µM (inactive)	23.3 µM (inactive)	22.8 µM (inactive)	9.79 µM (inactive)	18.4 µM (inactive)	18.7 µM (inactive)	11.1 µM (inactive)	20.8 µM (inactive)
Cn1c(C(C)(C)OC(=O)Oc2ccccc2)cnc1[N+](=O)[O-]	> 100 µM (inactive)	> 100 µM (inactive)	> 100 µM (inactive)	> 100 µM (inactive)	> 100	> 100 µM (inactive)	> 100 µM (inactive)	59.2 µM (inactive)	21 µM (inactive)	> 100 µM (inactive)	63 µM (inactive)	> 100 µM (inactive)	16.7 µM (inactive)	> 100 µM (inactive)	> 100 µM (inactive)	16.8 µM (inactive)	> 100 µM (inactive)	> 100 µM (inactive)	> 100 µM (inactive)	36.6 µM (inactive)
Cc1ccc([N+](=O)[O-])c2c(NCCNC(=O)c3cc(C(=O)NCCNc4ccnc5c(C)ccc([N+](=O)[O-])c45)n(C)n3)ccnc12	45.2 µM (inactive)	> 100 µM (inactive)	> 100 µM (inactive)	> 87.3 µM (inactive)	> 76.9	> 72.4 µM (inactive)	> 100 µM (inactive)	40.5 µM (inactive)	41.2 µM (inactive)	98.6 µM (inactive)	> 21.5 µM (inactive)	> 100 µM (inactive)	31.7 µM (inactive)	> 60 µM (inactive)	> 79.6 µM (inactive)	55.1 µM (inactive)	> 100 µM (inactive)	> 57.4 µM (inactive)	> 80.7 µM (inactive)	> 100 µM (inactive)
CCN(CC)c1ccc2cc(C(=O)NCc3ccccc3)c(=N)oc2c1	37.3 µM (inactive)	0.912 µM (active)	54.3 µM (inactive)	> 37.6 µM (inactive)	9.27	11.1 µM (inactive)	> 79.6 µM (inactive)	3.86 µM (inactive)	6.95 µM (inactive)	> 44.8 µM (inactive)	36.4 µM (inactive)	22.1 µM (inactive)	24.9 µM (inactive)	59.8 µM (inactive)	27.5 µM (inactive)	> 42.6 µM (inactive)	21.4 µM (inactive)	> 100 µM (inactive)	14.4 µM (inactive)	> 89.5 µM (inactive)
Cn1ccnc1Sc1ccc(/C=N/c2ccc3nc(SCC(=O)NC4CCCCC4)sc3c2)cc1[N+](=O)[O-]	2.7 µM (inactive)	> 100 µM (inactive)	13.7 µM (inactive)	18.6 µM (inactive)	> 100	38.2 µM (inactive)	22.6 µM (inactive)	> 100 µM (inactive)	> 100 µM (inactive)	> 100 µM (inactive)	> 100 µM (inactive)	12.1 µM (inactive)	> 100 µM (inactive)	28.4 µM (inactive)	13.2 µM (inactive)	> 100 µM (inactive)	18.6 µM (inactive)	14.6 µM (inactive)	15.6 µM (inactive)	> 100 µM (inactive)
CC(=O)OC(C#N)CC(C)(C)/[N+]([O-])=[N+](\[O-])C(C)(C)CC(C#N)OC(C)=O (stereo not given)	15.1 µM (inactive)	22.4 µM (inactive)	23.1 µM (inactive)	17.3 µM (inactive)	10.6	14.4 µM (inactive)	10.8 µM (inactive)	3.77 µM (inactive)	15.8 µM (inactive)	15 µM (inactive)	8.83 µM (inactive)	12.3 µM (inactive)	3.24 µM (inactive)	17.8 µM (inactive)	38.3 µM (inactive)	2.41 µM (inactive)	24.3 µM (inactive)	44.6 µM (inactive)	15.9 µM (inactive)	20.7 µM (inactive)
